Values of other authors in article PMC4946565 (Bioorganic & medicinal chemistry letters, 2016).

Tested on: VMAT2
Details: selectivity VMAT2 over DAT; ref [4], [9], [10]

CN1[C@@H](CC(=O)c2ccccc2)CCC[C@H]1C[C@H](O)c1ccccc1 [Lobeline, lobeline]
fold higher affinity for VMAT2 compared to DAT: about 100 fold
